Columns and labels:
[1] = tested on: HDAC1 (deacetylase activity inside HeLa cells); assay: Cell based HDAC1 inhibition (HDAC HeLa Cell based assay); set-up: species or system human
Method: After result normalization using positive and negative controls, compound potency is determined by fitting the following equation: % inh=Ymin+(Ymax−Ymin)/(1+(X/IC50)^slope)) Where: • Ymin=minimum percentage inhibition • Ymax=maximum percentage inhibition • IC50=the concentration of the compound at which 50% inhibition is reached • Slope=the slope of the curve calculated at the IC50 Cell Based HDAC1 Inhibition Overview:
The aim of the assay is to evaluate the inhibition of the deacetylase activity inside the cells. To such goal a membrane permeable substrate is added to HeLa cells. After the incubation period, cells are lysed and the deacetylated substrate is evaluated using the same principles previously described for the human HDAC1 assay.
HeLa cells (HeLa, cervix adnocarcinoma, ATCC® Number: CCL-2™) frozen stock are derived from cell cultured in DMEM, glutamine, penicilline, streptomicine and 10% fetal bovine serum (FBS). Stock are frozen in 90% FBD and 10% DMSO.
b) HDAC Substrate Buffer System
Reagents of the HDAC Fluorescent Activity Assay are purchased from Enzo Life Sciences (http://www.enzolifesciences.com/BML-AK500/fluor-de-lys-hdac-fluorometric-activity-assay-kit/) and feature the Fluor-de-Lys™ Substrate/Developer System. The reagents include the proprietary fluorescent substrate as a 50 mM stock solution (KI-104), and the Developer Concentrate (KI-105). Deacetylation of the lysine residue of the Fluor-de-Lys substrate is quantified by measuring the fluorescence (ex 360 nm, em 460 nm) after addition of the proprietary developer.
TSA is provided as a 10 mM stock solution in 100% dimethylsulfoxide (DMSO).
Test compounds should be prepared in 100% DMSO and transferred to the assay by a nano volume dispenser to reach the appropriate concentration and the appropriate DMSO concentration (0.25%) in the reaction.
GIBCO Dulbecco's Mod Eagle Medium without Phenol Red (cat n° 11880) Completed with 10% FCS—fetal bovine serum—, 1% Penicillin-Streptomycin (10 mg/ml) and 1% L-Glutamine 200 mM (100×)
f) Diluted Substrate Solution
The commercial 50 mM Fluor-de-Lys substrate (KI-104) is diluted to 400 uM in Assay Buffer prior to each use.
g) Diluted Stop-Lysis-Developer Solution
The reaction is performed in 384-well microplate in a final volume of 20 μl/well+10 μl/well of Stop-Lysis-Developer Mix, as following: • seed 10000 HeLa cells/well, from the frozen aliquots, in 15 μl in assay medium and let recover overnight; • transfer compounds to the assay by nano-volume transfer machine in order to reach the desired assay concentration and a final DMSO concentration of 0.25%; • pre-incubate compounds on cells for 30 min; • start the reaction by adding 5 μl of the Diluted Substrate Solution; • stop the reaction after 4 h incubation at 37° C. 5% CO2 by adding 10 μl of Diluted Stop-Lysis-Developer Solution; • incubate 20 min at 37° C.; • after 10 min at RT measure the fluorescence at excitation 360 nm and emission 460 nm
Negative controls (0% Effect) are produced by addition of DMSO to the proper wells.
Positive controls (100% Effect) are produced by addition of 4 μM TSA to the proper wells.
After result normalization using positive and negative controls, compound potency is determined by fitting the following equation: % inh=Ymin+(Ymax−Ymin)/(1+(X/EC50)^slope)) Where: • Ymin=minimum percentage effect • Ymax=maximum percentage effect • EC50=the concentration of the compound at which 50% effect is reached • Slope=the slope of the curve calculated at the EC50 In Vitro Culture of P. falciparum Parasites

[2] = tested on: Plasmodium falciparum 3D7; assay: P. falciparum growth inhibition assay (Pf-LDH); format: cell-based; conditions: for Selectivity Index: HDAC HeLa Cell Based IC50 (μM)/Pf-LDH EC50 (μM); for EC50: Plasmodium falciparum, Erythrocyte, P. falciparum 3D7 infected erythrocytes, 72 h incubation, PfLDH readout
Procedure, shortened: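 Compounds were tested against 72 h cultures of the 3D7 strain (0.25% parasitemia, 2% hematocrit, 37° C, low-oxygen gas). Parasite growth was quantified as lactate dehydrogenase activity via NBT reduction, absorbance 650 nm, after freezing and thawing.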

[3] = target: T1, human HDAC1 (Homo sapiens, UniProt Q13547); assay: Homo sapiens HDAC1 inhibition assay (Fluor-de-Lys, enzymatic); format: biochemical; conditions: human HDAC enzymatic assay; read-out: hHDAC IC50
T1 construct: made in house; host or cells: HeLa (ATCC CCL-2), mammalian cells
T1 sequence (Q13547 whole entry): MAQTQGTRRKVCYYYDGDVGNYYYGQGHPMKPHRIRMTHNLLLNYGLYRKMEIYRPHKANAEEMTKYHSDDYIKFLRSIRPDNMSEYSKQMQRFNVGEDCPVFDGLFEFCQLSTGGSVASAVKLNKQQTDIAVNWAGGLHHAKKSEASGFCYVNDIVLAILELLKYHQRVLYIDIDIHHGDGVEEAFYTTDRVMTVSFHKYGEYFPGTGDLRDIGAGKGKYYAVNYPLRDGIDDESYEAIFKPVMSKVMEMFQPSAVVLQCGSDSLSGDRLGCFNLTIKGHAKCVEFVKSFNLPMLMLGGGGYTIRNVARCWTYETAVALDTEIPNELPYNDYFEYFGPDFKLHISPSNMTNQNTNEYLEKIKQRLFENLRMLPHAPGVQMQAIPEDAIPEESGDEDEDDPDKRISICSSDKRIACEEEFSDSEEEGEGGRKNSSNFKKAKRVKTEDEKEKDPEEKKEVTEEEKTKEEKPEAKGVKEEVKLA
Procedure, shortened: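 Fluorogenic deacetylation read-out: trypsin developer, supplemented with 2 μM final TSA as stop, releases fluorophore from deacetylated substrate.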

Row | Structure (SMILES) | IC50 [1] [µM] | Selectivity Index [2] | EC50 [2] [µM] | IC50 [3] [µM]
1 | CNC(=O)CCCCC[C@H](NC(=O)c1cncs1)c1ncc(-c2ccc(-c3cnn(C)c3)cc2)[nH]1 [compound 228, (S)-N-(1-(5-(4-(1-methyl-1H-pyrazol-4-yl)phenyl)-1H-imidazol-2-yl)-7-(methylamino)-7-oxoheptyl)thiazole-5-carboxamide] | > 5 | 6.7 | 1 to 5 | > 5
2 | CNC(=O)CCCCC[C@H](NC(=O)c1cncs1)c1ncc(-c2ccc(-c3ccnn3C)cc2)[nH]1 [compound 229, (S)-N-(1-(5-(4-(1-methyl-1H-pyrazol-5-yl)phenyl)-1H-imidazol-2-yl)-7-(methylamino)-7-oxoheptyl)thiazole-5-carboxamide] | > 5 | 5.6 | 1 to 5 | > 5
3 | CNC(=O)CCCCC[C@H](NC(=O)c1cncs1)c1ncc(-c2ccc(-c3cscn3)cc2)[nH]1 [compound 232, (S)-N-(7-(methylamino)-7-oxo-1-(5-(4-(thiazol-4-yl)phenyl)-1H-imidazol-2-yl)heptyl)thiazole-5-carboxamide] | > 5 | 14.2 | < 1 | 1 to 5
4 | CNC(=O)CCCCC[C@H](NC(=O)c1cncs1)c1ncc(-c2ccc(-c3nccs3)cc2)[nH]1 [compound 231, (S)-N-(7-(methylamino)-7-oxo-1-(5-(4-(thiazol-2-yl)phenyl)-1H-imidazol-2-yl)heptyl)thiazole-5-carboxamide] | > 5 | 10.6 | < 1 | 1 to 5
5 | CNC(=O)CCCCC[C@H](NC(=O)c1cncs1)c1ncc(-c2ccc(-c3cncs3)cc2)[nH]1 [compound 230, (S)-N-(7-(methylamino)-7-oxo-1-(5-(4-(thiazol-5-yl)phenyl)-1H-imidazol-2-yl)heptyl)thiazole-5-carboxamide] | > 5 | 3.6 | 1 to 5 | 1 to 5
6 | CNC(=O)CCCCC[C@H](NC(=O)c1cnn(C(C)C)c1)c1ncc(-c2ccc3cc(OC)ncc3c2)[nH]1 [compound 227, (S)-1-isopropyl-N-(1-(5-(3-methoxyisoquinolin-7-yl)-1H-imidazol-2-yl)-7-(methylamino)-7-oxoheptyl)-1H-pyrazole-4-carboxamide] | 1 to 5 | 23.5 | < 1 | < 1
7 | CNC(=O)CCCCC[C@H](NC(=O)c1cncs1)c1ncc(-c2ccc(C#N)cc2)[nH]1 [Entry 52, (S)-N-(1-(5-(4-cyanophenyl)-1H-imidazol-2-yl)-7-(methylamino)-7-oxoheptyl)thiazole-5-carboxamide] | – | – | > 5 | 1 to 5
8 | CNC(=O)CCCCC[C@H](NC(=O)c1nc[nH]n1)c1ncc(-c2cc3ccccc3nc2OC)[nH]1 [Entry 102, (S)-N-(1-(5-(2-methoxyquinolin-3-yl)-1H-imidazol-2-yl)-7-(methylamino)-7-oxoheptyl)-1H-1,2,4-triazole-3-carboxamide] | – | – | > 5 | > 5
9 | CNC(=O)CCCCC[C@H](NC(=O)c1cncs1)c1ncc(-c2ccc3[nH]ccc3c2)[nH]1 [Entry 24, (S)-N-(1-(5-(1H-indol-5-yl)-1H-imidazol-2-yl)-7-(methylamino)-7-oxoheptyl)thiazole-5-carboxamide] | – | – | < 1 | 1 to 5
10 | Cn1ccc(-c2ccc(-c3cnc([C@H](CCCCCC(N)=O)NC(=O)c4cncs4)[nH]3)cc2)n1 [Entry 218, (S)-N-(7-amino-1-(5-(4-(1-methyl-1H-pyrazol-3-yl)phenyl)-1H-imidazol-2-yl)-7-oxoheptyl)thiazole-5-carboxamide] | – | – | < 1 | < 1
11 | CNC(=O)CCCCC[C@H](NC(=O)Cc1cnccn1)c1ncc(-c2ccc3ccccc3c2)[nH]1 [Entry 113] | – | – | 1 to 5 | 1 to 5
12 | CNC(=O)CCCCC[C@H](NC(=O)c1ccccc1-n1cnnn1)c1ncc(-c2ccc3ccccc3c2)[nH]1 [Entry 87, (S)-N-(7-(methylamino)-1-(5-(naphthalen-2-yl)-1H-imidazol-2-yl)-7-oxoheptyl)-2-(1H-tetrazol-1-yl)benzamide] | – | – | 1 to 5 | 1 to 5
13 | CNC(=O)CCCCC[C@H](NC(=O)c1cnn(C(C)C)c1)c1ncc(-c2ccc3ccncc3c2)[nH]1 [Entry 90, (S)-1-isopropyl-N-(1-(5-(isoquinolin-7-yl)-1H-imidazol-2-yl)-7-(methylamino)-7-oxoheptyl)-1H-pyrazole-4-carboxamide] | – | – | < 1 | < 1
14 | CNC(=O)CCCCC[C@H](NC(=O)C1(C)CCOCC1)c1ncc(-c2cc3ccccc3nc2OC)[nH]1 [Entry 133, (S)-N-(1-(5-(2-methoxyquinolin-3-yl)-1H-imidazol-2-yl)-7-(methylamino)-7-oxoheptyl)-4-methyltetrahydro-2H-pyran-4-carboxamide] | – | – | 1 to 5 | 1 to 5
15 | CNC(=O)CCCCC[C@H](NC(=O)C12CCN(CC1)CC2)c1ncc(-c2cc3ccccc3nc2OC)[nH]1 [Entry 177, (S)-N-(1-(5-(2-methoxyquinolin-3-yl)-1H-imidazol-2-yl)-7-(methylamino)-7-oxo-heptyl)quinuclidine-4-carboxamide] | – | – | < 1 | < 1
16 | CNC(=O)CCCCC[C@H](NC(=O)Cn1ccnn1)c1ncc(-c2ccc(-c3ccn(C)n3)cc2)[nH]1 [Entry 69, (S)-7-(2-(1H-1,2,3-triazol-1-yl)acetamido)-N-methyl-7-(5-(4-(1-methyl-1H-pyrazol-3-yl)phenyl)-1H-imidazol-2-yl)heptanamide] | – | – | > 5 | > 5
17 | CNC(=O)CCCCC[C@H](NC(=O)C1CN(C)C1)c1ncc(-c2cc3ccccc3nc2OC)[nH]1 [Entry 98, (S)-N-(1-(5-(2-methoxyquinolin-3-yl)-1H-imidazol-2-yl)-7-(methylamino)-7-oxoheptyl)-1-methylazetidine-3-carboxamide] | – | – | 1 to 5 | 1 to 5
18 | CNC(=O)CCCCC[C@H](NC(=O)c1cncs1)c1ncc(-c2ccc(-c3ccccc3)nc2OC)[nH]1 [Entry 192, (S)-N-(1-(5-(2-methoxy-6-phenylpyridin-3-yl)-1H-imidazol-2-yl)-7-(methylamino)-7-oxoheptyl)thiazole-5-carboxamide] | – | – | 1 to 5 | > 5
19 | CNC(=O)CCCCC[C@H](NC(=O)c1cncs1)c1ncc(-c2ccc(-c3ncccn3)cc2)[nH]1 [Entry 120, (S)-N-(7-(methylamino)-7-oxo-1-(5-(4-(pyrimidin-2-yl)phenyl)-1H-imidazol-2-yl)heptyl)thiazole-5-carboxamide] | – | – | 1 to 5 | 1 to 5
20 | CNC(=O)CCCCC[C@H](NC(=O)c1cncs1)c1ncc(-c2ccc(-c3cccnc3)cc2)[nH]1 [Entry 196, (S)-N-(7-(methylamino)-7-oxo-1-(5-(4-(pyridin-3-yl)phenyl)-1H-imidazol-2-yl)heptyl)thiazole-5-carboxamide] | – | – | 1 to 5 | 1 to 5
21 | CNC(=O)CCCCC[C@H](NC(=O)c1cnsc1)c1ncc(-c2ccc3[nH]ncc3c2)[nH]1 [Entry 34, (S)-N-(1-(5-(1H-indazol-5-yl)-1H-imidazol-2-yl)-7-(methylamino)-7-oxoheptyl)isothiazole-4-carboxamide] | – | – | 1 to 5 | 1 to 5

Source: patent US9365541B2, “Compounds for use in the treatment of parasitic diseases” (IRBM—SCIENCE PARK S.P.A., priority 2012, dated 2016)
